Test results from patent US20210045385A1, “PYRIDAZINONE-SUBSTITUTED KETOXIMES AS HERBICIDES” (FMC Corporation, priority 2018, published 2021).

Legend:
Assay type in all cases: in vivo
[1] = system: wheat (Triticum aestivum); test: Test C postemergence, visual plant response rating
Outline: (§1)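 Compounds in a non-phytotoxic solvent with surfactant were applied as a directed soil spray preemergence or to 2–10 cm, one- to two-leaf plants postemergence, in loam–sand soil. After about 10 d in a greenhouse, injury was visually rated against untreated controls on a 0–100 scale (100 = complete control).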

[2] = system: pigweed (Amaranthus retroflexus); test: Test C postemergence, visual plant response rating
Outline: as §1

corn (Zea mays) = test: Test C postemergence, visual plant response rating
Outline: as §1

[3] = system: barnyardgrass (Echinochloa crus-galli); test: Test C postemergence, visual plant response rating
Outline: as §1

[4] = system: blackgrass (Alopecurus myosuroides); test: Test C postemergence, visual plant response rating
Outline: as §1

[5] = system: ragweed (common ragweed, Ambrosia artemisiifolia); test: Test C postemergence, visual plant response rating
Outline: as §1

[6] = system: galium (catchweed bedstraw, Galium aparine); test: Test C postemergence, visual plant response rating
Outline: as §1

[7] = system: foxtail, giant (giant foxtail, Setaria faberi); test: Test C postemergence, visual plant response rating
Outline: as §1

kochia (Bassia scoparia) [8] = test: Test C postemergence, visual plant response rating
Outline: as §1

[9] = system: Italian ryegrass (Lolium mutiflorum); test: Test C postemergence, visual plant response rating
Outline: as §1

[10] = system: pigweed (Amaranthus retroflexus); test: Test C preemergence, visual plant response rating
Outline: as §1

[11] = system: barnyardgrass (Echinochloa crus-galli); test: Test C preemergence, visual plant response rating
Outline: as §1

[12] = system: ragweed (common ragweed, Ambrosia artemisiifolia); test: Test C preemergence, visual plant response rating
Outline: as §1

[13] = system: foxtail, giant (giant foxtail, Setaria faberi); test: Test C preemergence, visual plant response rating
Outline: as §1

kochia (Bassia scoparia) [14] = test: Test C preemergence, visual plant response rating
Outline: as §1

[15] = system: Italian ryegrass (Lolium mutiflorum); test: Test C preemergence, visual plant response rating
Outline: as §1

[16] = system: barnyardgrass (Echinochloa crus-galli); test: Test D flooded paddy test, visual plant response rating; details: 250 g ai/ha, scale 0 to 100 (0 no effect, 100 complete control), 13 to 15 d
Outline: (§2)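 Plants were grown to the 2-leaf stage, pots flooded to 3 cm above soil, and compound applied directly into the paddy water, with the depth held throughout. After 13 to 15 d in a greenhouse, response was rated visually against untreated controls on a 0–100 scale (0 no effect, 100 complete control).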

[17] = system: duck salad (Heteranthera limosa); test: as above; details: 250 g ai/ha, scale 0 to 100 (0 no effect, 100 complete control), 13 to 15 d
Outline: as §2

[18] = system: sedge umbrella (small-flower umbrella sedge, Cyperus difformis); test: as above; details: 250 g ai/ha, scale 0 to 100 (0 no effect, 100 complete control), 13 to 15 d
Outline: as §2

rice (Oryza sativa) = test: as above; details: 250 g ai/ha, scale 0 to 100 (0 no effect, 100 complete control), 13 to 15 d
Outline: as §2

[19] = Test C, postemergence, 125 g ai/ha
[20] = Test C, 31 g ai/ha, 0 is no effect, 100 is complete control
[21] = Test C, 125 g ai/ha, 0 is no effect, 100 is complete control

Structure (SMILES) | Wheat plant response rating (0 to 100 scale) ([1]; Postemergence, 31 g ai/ha) | Wheat plant response rating (0 to 100 scale) [1, 19] | Pigweed plant response rating (0 to 100 scale) ([2]; Postemergence, 31 g ai/ha) | Pigweed plant response rating (0 to 100 scale) [2, 19] | Corn plant response rating (0 to 100 scale) (corn (Zea mays); Postemergence, 31 g ai/ha) | Corn plant response rating (0 to 100 scale) (corn (Zea mays); [19]) | Barnyardgrass plant response rating (0 to 100 scale) ([3]; Postemergence, 31 g ai/ha) | Barnyardgrass plant response rating (0 to 100 scale) [3, 19] | Blackgrass plant response rating (0 to 100 scale) ([4]; Postemergence, 31 g ai/ha) | Blackgrass plant response rating (0 to 100 scale) [4, 19] | Ragweed plant response rating (0 to 100 scale) ([5]; Postemergence, 31 g ai/ha) | Ragweed plant response rating (0 to 100 scale) [5, 19] | Galium plant response rating (0 to 100 scale) ([6]; Postemergence, 31 g ai/ha) | Galium plant response rating (0 to 100 scale) [6, 19] | Foxtail, Giant plant response rating (0 to 100 scale) ([7]; Postemergence, 31 g ai/ha) | Foxtail, Giant plant response rating (0 to 100 scale) [7, 19] | Kochia plant response rating (0 to 100 scale) (kochia (Bassia scoparia) [8]; Postemergence, 31 g ai/ha) | Kochia plant response rating (0 to 100 scale) (kochia (Bassia scoparia) [8]; [19]) | Ryegrass, Italian plant response rating (0 to 100 scale) ([9]; Postemergence, 31 g ai/ha) | Ryegrass, Italian plant response rating (0 to 100 scale) [9, 19] | further results
Cc1nn(C)c(=O)c(/C(=N/OC(C)C)c2cc(Cl)cc(Cl)c2F)c1O [Compound 179] | 80 | 100 | 100 | 100 | 30 | 80 | 90 | 80 | 80 | 90 | 100 | 100 | 100 | 100 | 90 | 100 | 80 | 100 | 90 | 100 | Pigweed plant response rating (0 to 100 scale) ([10]; 125 g ai/ha): 100; Pigweed plant response rating (0 to 100 scale) [10, 20]: 100; Barnyardgrass plant response rating (0 to 100 scale) ([11]; 125 g ai/ha): 100; Barnyardgrass plant response rating (0 to 100 scale) [11, 20]: 90; Ragweed plant response rating (0 to 100 scale) ([12]; 125 g ai/ha): 100; Ragweed plant response rating (0 to 100 scale) [12, 20]: 90; Foxtail, Giant plant response rating (0 to 100 scale) ([13]; 125 g ai/ha): 100; Foxtail, Giant plant response rating (0 to 100 scale) [13, 20]: 100; Kochia plant response rating (0 to 100 scale) (kochia (Bassia scoparia) [14]; 125 g ai/ha): 90; Kochia plant response rating (0 to 100 scale) (kochia (Bassia scoparia) [14]; [20]): 90; Ryegrass, Italian plant response rating (0 to 100 scale) ([15]; 125 g ai/ha): 100; Ryegrass, Italian plant response rating (0 to 100 scale) [15, 20]: 100; Plant response rating, Barnyardgrass (Flood) [16]: 95; Plant response rating, Ducksalad (Flood) [17]: 80; Plant response rating, Sedge, Umbrella (Flood) [18]: 95; Plant response rating, Rice (Flood) (rice (Oryza sativa)): 70
CO/N=C(/c1cc(Cl)c(F)c(Cl)c1)c1c(O)c(C)nn(C)c1=O [Compound 289] | 0 | 0 | 0 | 0 | 0 | 0 | 0 | 10 | 0 | 0 | 40 | 90 | 70 | 100 | 0 | 0 | 20 | 40 | 0 | 60 | Pigweed plant response rating (0 to 100 scale) [10, 20]: 0; Pigweed plant response rating (0 to 100 scale) [10, 21]: 40; Barnyardgrass plant response rating (0 to 100 scale) [11, 20]: 0; Barnyardgrass plant response rating (0 to 100 scale) [11, 21]: 0; Ragweed plant response rating (0 to 100 scale) [12, 20]: 0; Ragweed plant response rating (0 to 100 scale) [12, 21]: 30; Foxtail, Giant plant response rating (0 to 100 scale) [13, 20]: 0; Foxtail, Giant plant response rating (0 to 100 scale) [13, 21]: 10; Kochia plant response rating (0 to 100 scale) (kochia (Bassia scoparia) [14]; [20]): 0; Kochia plant response rating (0 to 100 scale) (kochia (Bassia scoparia) [14]; [21]): 0; Ryegrass, Italian plant response rating (0 to 100 scale) [15, 20]: 0; Ryegrass, Italian plant response rating (0 to 100 scale) [15, 21]: 30; Plant response rating, Barnyardgrass (Flood) [16]: 0; Plant response rating, Ducksalad (Flood) [17]: 0; Plant response rating, Sedge, Umbrella (Flood) [18]: 0; Plant response rating, Rice (Flood) (rice (Oryza sativa)): 0
Cc1nn(C)c(=O)c(/C(=N/OC(C)C)c2cccc3cc(Cl)ccc23)c1O [Compound 245] | 0 | 0 | 70 | 90 | 30 | 30 | 30 | 50 | 0 | 0 | 20 | 70 | 70 | 90 | 30 | 80 | 0 | 20 | 0 | 0 | Pigweed plant response rating (0 to 100 scale) [10, 20]: 50; Pigweed plant response rating (0 to 100 scale) [10, 21]: 100; Barnyardgrass plant response rating (0 to 100 scale) [11, 20]: 30; Barnyardgrass plant response rating (0 to 100 scale) [11, 21]: 70; Ragweed plant response rating (0 to 100 scale) [12, 20]: 10; Ragweed plant response rating (0 to 100 scale) [12, 21]: 40; Foxtail, Giant plant response rating (0 to 100 scale) [13, 20]: 60; Foxtail, Giant plant response rating (0 to 100 scale) [13, 21]: 90; Kochia plant response rating (0 to 100 scale) (kochia (Bassia scoparia) [14]; [20]): 0; Kochia plant response rating (0 to 100 scale) (kochia (Bassia scoparia) [14]; [21]): 0; Ryegrass, Italian plant response rating (0 to 100 scale) [15, 20]: 0; Ryegrass, Italian plant response rating (0 to 100 scale) [15, 21]: 0; Plant response rating, Barnyardgrass (Flood) [16]: 15; Plant response rating, Ducksalad (Flood) [17]: 30; Plant response rating, Sedge, Umbrella (Flood) [18]: 50; Plant response rating, Rice (Flood) (rice (Oryza sativa)): 25
C=CCO/N=C(\c1c(O)c(C)nn(C)c1=O)c1cccc2cc(Cl)ccc12 [Compound 243] | 0 | 0 | 80 | 90 | 0 | 30 | 70 | 80 | 30 | 50 | 60 | 90 | 80 | 90 | 70 | 80 | 20 | 20 | 10 | 40 | Pigweed plant response rating (0 to 100 scale) [10, 20]: 70; Pigweed plant response rating (0 to 100 scale) [10, 21]: 100; Barnyardgrass plant response rating (0 to 100 scale) [11, 20]: 20; Barnyardgrass plant response rating (0 to 100 scale) [11, 21]: 80; Ragweed plant response rating (0 to 100 scale) [12, 20]: 30; Ragweed plant response rating (0 to 100 scale) [12, 21]: 80; Foxtail, Giant plant response rating (0 to 100 scale) [13, 20]: 80; Foxtail, Giant plant response rating (0 to 100 scale) [13, 21]: 100; Kochia plant response rating (0 to 100 scale) (kochia (Bassia scoparia) [14]; [20]): 0; Kochia plant response rating (0 to 100 scale) (kochia (Bassia scoparia) [14]; [21]): 0; Ryegrass, Italian plant response rating (0 to 100 scale) [15, 20]: 0; Ryegrass, Italian plant response rating (0 to 100 scale) [15, 21]: 20; Plant response rating, Barnyardgrass (Flood) [16]: 40; Plant response rating, Ducksalad (Flood) [17]: 80; Plant response rating, Sedge, Umbrella (Flood) [18]: 100; Plant response rating, Rice (Flood) (rice (Oryza sativa)): 45
